Experiments:
Assay in all cases: Kinase Hotspot radiolabel assay
Format in all cases: biochemical
Conditions in all cases: read-out: % Residual Activity
EPHB4 = biological target: T1, EPHB4 (Homo sapiens, UniProt P54760)
T1 construct: purchased Reaction Biology Corporation (Kinase HotSpot)
Outline: (§1)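 Profiled at 1 µM compound within a 369-kinase panel using a radiolabel Hotspot format. Ki values were then determined for kinases showing greater than 90% inhibition.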

TAOK3/JIK = biological target: T2, TAOK3/JIK (Homo sapiens, UniProt Q9H2K8)
T2 construct: purchased Reaction Biology Corporation (Kinase HotSpot)
Outline: as §1

P38a/MAPK14 = biological target: T3, P38a/MAPK14 (Homo sapiens, UniProt Q16539)
T3 construct: purchased Reaction Biology Corporation (Kinase HotSpot)
Outline: as §1

STK21/CIT = biological target: T4, STK21/CIT (Homo sapiens, UniProt O14578)
T4 construct: purchased Reaction Biology Corporation (Kinase HotSpot)
Outline: as §1

BMX/ETK = biological target: T5, BMX/ETK (Homo sapiens, UniProt P51813)
T5 construct: purchased Reaction Biology Corporation (Kinase HotSpot)
Outline: as §1

HGK/MAP4K4 = biological target: T6, HGK/MAP4K4 (Homo sapiens, UniProt O95819)
T6 construct: purchased Reaction Biology Corporation (Kinase HotSpot)
Outline: as §1

LATS1 = biological target: T7, LATS1 (Homo sapiens, UniProt O95835)
T7 construct: purchased Reaction Biology Corporation (Kinase HotSpot)
Outline: as §1

JAK1 = biological target: T8, JAK1 (Homo sapiens, UniProt P23458)
T8 construct: purchased Reaction Biology Corporation (Kinase HotSpot)
Outline: as §1

CSK = biological target: T9, CSK (Homo sapiens, UniProt P41240)
T9 construct: purchased Reaction Biology Corporation (Kinase HotSpot)
Outline: as §1

SGK1 = biological target: T10, SGK1 (Homo sapiens, UniProt O00141)
T10 construct: purchased Reaction Biology Corporation (Kinase HotSpot)
Outline: as §1

CLK4 = biological target: T11, CLK4 (Homo sapiens, UniProt Q9HAZ1)
T11 construct: purchased Reaction Biology Corporation (Kinase HotSpot)
Outline: as §1

SGK2 = biological target: T12, SGK2 (Homo sapiens, UniProt Q9HBY8)
T12 construct: purchased Reaction Biology Corporation (Kinase HotSpot)
Outline: as §1

IKKb/IKBKB = biological target: T13, IKKb/IKBKB (Homo sapiens, UniProt O14920)
T13 construct: purchased Reaction Biology Corporation (Kinase HotSpot)
Outline: as §1

CAMK4 = biological target: T14, CAMK4 (Homo sapiens, UniProt Q16566)
T14 construct: purchased Reaction Biology Corporation (Kinase HotSpot)
Outline: as §1

DYRK1/DYRK1A = biological target: T15, DYRK1/DYRK1A (Homo sapiens, UniProt Q13627)
T15 construct: purchased Reaction Biology Corporation (Kinase HotSpot)
Outline: as §1

CDK6/cyclin D3 = biological target: T16, CDK6/cyclin D3 (Homo sapiens, UniProt Q00534)
T16 construct: purchased Reaction Biology Corporation (Kinase HotSpot)
Outline: as §1

HPK1/MAP4K1 = biological target: T17, HPK1/MAP4K1 (Homo sapiens, UniProt Q92918)
T17 construct: purchased Reaction Biology Corporation (Kinase HotSpot)
Outline: as §1

ALK4/ACVR1B = biological target: T18, ALK4/ACVR1B (Homo sapiens, UniProt P36896)
T18 construct: purchased Reaction Biology Corporation (Kinase HotSpot)
Outline: as §1

NIM1 = biological target: T19, NIM1 (Homo sapiens, UniProt Q8IY84)
T19 construct: purchased Reaction Biology Corporation (Kinase HotSpot)
Outline: as §1

DYRK2 = biological target: T20, DYRK2 (Homo sapiens, UniProt Q92630)
T20 construct: purchased Reaction Biology Corporation (Kinase HotSpot)
Outline: as §1

PIM2 = biological target: T21, PIM2 (Homo sapiens, UniProt Q9P1W9)
T21 construct: purchased Reaction Biology Corporation (Kinase HotSpot)
Outline: as §1

DRAK1/STK17A = biological target: T22, DRAK1/STK17A (Homo sapiens, UniProt Q9UEE5)
T22 construct: purchased Reaction Biology Corporation (Kinase HotSpot)
Outline: as §1

RIPK4 = biological target: T23, RIPK4 (Homo sapiens, UniProt P57078)
T23 construct: purchased Reaction Biology Corporation (Kinase HotSpot)
Outline: as §1

PKN3/PRK3 = biological target: T24, PKN3/PRK3 (Homo sapiens, UniProt Q6P5Z2)
T24 construct: purchased Reaction Biology Corporation (Kinase HotSpot)
Outline: as §1

BRSK1 = biological target: T25, BRSK1 (Homo sapiens, UniProt Q8TDC3)
T25 construct: purchased Reaction Biology Corporation (Kinase HotSpot)
Outline: as §1

PAK3 = biological target: T26, PAK3 (Homo sapiens, UniProt O75914)
T26 construct: purchased Reaction Biology Corporation (Kinase HotSpot)
Outline: as §1

MYO3b = biological target: T27, MYO3b (Homo sapiens, UniProt Q8WXR4)
T27 construct: purchased Reaction Biology Corporation (Kinase HotSpot)
Outline: as §1

MST3/STK24 = biological target: T28, MST3/STK24 (Homo sapiens, UniProt Q9Y6E0)
T28 construct: purchased Reaction Biology Corporation (Kinase HotSpot)
Outline: as §1

LCK2/ICK = biological target: T29, LCK2/ICK (Homo sapiens, UniProt Q9UPZ9)
T29 construct: purchased Reaction Biology Corporation (Kinase HotSpot)
Outline: as §1

T14 sequence (Q16566 whole entry): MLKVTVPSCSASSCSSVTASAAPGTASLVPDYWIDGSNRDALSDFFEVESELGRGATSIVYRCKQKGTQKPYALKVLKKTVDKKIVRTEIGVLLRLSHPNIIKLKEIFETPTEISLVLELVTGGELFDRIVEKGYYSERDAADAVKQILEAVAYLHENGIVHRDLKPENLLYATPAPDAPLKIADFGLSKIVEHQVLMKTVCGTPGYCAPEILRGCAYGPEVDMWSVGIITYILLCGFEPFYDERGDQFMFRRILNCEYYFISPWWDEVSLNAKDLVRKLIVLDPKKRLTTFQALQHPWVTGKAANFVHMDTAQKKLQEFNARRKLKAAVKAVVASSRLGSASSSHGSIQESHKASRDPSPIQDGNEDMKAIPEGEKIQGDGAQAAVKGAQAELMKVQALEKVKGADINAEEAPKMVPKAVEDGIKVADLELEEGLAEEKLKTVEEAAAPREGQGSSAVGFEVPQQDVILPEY
T10 sequence (O00141 whole entry): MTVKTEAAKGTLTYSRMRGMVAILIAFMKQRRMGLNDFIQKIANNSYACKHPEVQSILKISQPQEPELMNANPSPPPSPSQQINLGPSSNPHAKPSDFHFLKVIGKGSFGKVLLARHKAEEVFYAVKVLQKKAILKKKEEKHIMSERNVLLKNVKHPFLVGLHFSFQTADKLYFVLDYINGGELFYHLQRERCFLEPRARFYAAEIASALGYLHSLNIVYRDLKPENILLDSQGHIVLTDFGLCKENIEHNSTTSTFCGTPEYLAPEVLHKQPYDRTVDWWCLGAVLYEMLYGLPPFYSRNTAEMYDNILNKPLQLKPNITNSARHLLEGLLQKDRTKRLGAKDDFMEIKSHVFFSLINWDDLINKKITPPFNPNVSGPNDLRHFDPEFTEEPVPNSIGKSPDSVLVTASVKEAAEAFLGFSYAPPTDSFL
T1 sequence (P54760 16-987): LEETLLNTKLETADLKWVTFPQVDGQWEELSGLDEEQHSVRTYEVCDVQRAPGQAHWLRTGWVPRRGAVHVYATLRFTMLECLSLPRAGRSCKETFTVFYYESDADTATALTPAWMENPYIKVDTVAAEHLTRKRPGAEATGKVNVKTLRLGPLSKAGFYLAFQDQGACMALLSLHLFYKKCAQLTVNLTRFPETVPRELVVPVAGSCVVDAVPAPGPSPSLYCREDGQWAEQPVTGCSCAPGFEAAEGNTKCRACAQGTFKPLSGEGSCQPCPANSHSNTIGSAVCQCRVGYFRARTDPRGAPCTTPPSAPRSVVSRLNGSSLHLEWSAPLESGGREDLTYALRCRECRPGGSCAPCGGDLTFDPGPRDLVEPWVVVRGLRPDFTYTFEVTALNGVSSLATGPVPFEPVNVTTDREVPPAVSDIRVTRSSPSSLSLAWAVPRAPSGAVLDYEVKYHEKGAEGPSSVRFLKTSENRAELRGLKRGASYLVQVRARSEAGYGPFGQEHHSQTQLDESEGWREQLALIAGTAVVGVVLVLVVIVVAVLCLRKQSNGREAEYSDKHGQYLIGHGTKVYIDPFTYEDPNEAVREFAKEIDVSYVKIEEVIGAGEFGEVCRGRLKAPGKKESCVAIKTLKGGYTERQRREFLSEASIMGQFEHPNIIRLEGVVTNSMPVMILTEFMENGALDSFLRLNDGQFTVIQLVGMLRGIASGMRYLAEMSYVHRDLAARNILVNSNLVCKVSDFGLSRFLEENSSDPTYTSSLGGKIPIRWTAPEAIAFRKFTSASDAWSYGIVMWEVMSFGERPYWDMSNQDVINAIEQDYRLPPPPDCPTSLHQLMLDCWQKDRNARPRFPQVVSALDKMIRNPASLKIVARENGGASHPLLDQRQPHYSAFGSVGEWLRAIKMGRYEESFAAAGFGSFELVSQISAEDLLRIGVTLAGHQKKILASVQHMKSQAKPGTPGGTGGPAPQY
T17 sequence (Q92918 whole entry): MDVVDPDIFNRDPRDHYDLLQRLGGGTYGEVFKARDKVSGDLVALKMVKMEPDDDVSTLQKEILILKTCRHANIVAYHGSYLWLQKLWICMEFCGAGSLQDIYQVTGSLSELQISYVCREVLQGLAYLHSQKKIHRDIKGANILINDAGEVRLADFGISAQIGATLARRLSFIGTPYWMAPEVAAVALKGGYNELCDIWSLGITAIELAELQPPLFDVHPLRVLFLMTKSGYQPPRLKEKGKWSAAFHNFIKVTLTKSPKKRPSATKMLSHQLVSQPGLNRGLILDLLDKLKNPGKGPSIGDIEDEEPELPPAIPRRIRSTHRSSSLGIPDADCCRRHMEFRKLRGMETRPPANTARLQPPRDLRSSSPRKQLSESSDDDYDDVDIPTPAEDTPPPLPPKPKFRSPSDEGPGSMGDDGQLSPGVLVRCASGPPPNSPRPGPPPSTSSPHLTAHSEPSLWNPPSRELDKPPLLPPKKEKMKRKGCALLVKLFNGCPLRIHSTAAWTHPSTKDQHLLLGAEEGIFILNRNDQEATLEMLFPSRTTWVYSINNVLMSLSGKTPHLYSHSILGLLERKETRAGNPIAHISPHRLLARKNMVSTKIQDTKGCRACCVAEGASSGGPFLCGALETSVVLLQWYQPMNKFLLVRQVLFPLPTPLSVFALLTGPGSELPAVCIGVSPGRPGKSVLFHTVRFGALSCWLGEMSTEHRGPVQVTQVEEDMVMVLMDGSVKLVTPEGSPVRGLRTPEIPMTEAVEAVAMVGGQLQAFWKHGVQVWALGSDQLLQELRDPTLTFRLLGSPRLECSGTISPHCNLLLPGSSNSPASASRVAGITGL
T29 sequence (Q9UPZ9 whole entry): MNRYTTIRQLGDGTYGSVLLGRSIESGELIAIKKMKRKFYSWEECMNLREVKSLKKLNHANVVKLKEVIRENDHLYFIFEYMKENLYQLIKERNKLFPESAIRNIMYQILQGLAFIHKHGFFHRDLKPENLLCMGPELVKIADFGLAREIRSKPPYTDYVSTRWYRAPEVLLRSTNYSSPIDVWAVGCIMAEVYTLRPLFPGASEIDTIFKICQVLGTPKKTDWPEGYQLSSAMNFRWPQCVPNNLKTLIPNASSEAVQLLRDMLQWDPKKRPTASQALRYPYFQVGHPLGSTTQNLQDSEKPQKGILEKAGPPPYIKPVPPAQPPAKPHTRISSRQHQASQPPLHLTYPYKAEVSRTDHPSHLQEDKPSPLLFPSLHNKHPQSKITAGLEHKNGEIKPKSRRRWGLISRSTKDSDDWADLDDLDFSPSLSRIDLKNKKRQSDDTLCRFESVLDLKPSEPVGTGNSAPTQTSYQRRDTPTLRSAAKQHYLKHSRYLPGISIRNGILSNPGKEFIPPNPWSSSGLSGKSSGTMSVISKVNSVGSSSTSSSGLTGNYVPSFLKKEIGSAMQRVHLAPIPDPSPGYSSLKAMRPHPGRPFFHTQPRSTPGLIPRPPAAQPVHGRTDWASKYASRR
T25 sequence (Q8TDC3 whole entry): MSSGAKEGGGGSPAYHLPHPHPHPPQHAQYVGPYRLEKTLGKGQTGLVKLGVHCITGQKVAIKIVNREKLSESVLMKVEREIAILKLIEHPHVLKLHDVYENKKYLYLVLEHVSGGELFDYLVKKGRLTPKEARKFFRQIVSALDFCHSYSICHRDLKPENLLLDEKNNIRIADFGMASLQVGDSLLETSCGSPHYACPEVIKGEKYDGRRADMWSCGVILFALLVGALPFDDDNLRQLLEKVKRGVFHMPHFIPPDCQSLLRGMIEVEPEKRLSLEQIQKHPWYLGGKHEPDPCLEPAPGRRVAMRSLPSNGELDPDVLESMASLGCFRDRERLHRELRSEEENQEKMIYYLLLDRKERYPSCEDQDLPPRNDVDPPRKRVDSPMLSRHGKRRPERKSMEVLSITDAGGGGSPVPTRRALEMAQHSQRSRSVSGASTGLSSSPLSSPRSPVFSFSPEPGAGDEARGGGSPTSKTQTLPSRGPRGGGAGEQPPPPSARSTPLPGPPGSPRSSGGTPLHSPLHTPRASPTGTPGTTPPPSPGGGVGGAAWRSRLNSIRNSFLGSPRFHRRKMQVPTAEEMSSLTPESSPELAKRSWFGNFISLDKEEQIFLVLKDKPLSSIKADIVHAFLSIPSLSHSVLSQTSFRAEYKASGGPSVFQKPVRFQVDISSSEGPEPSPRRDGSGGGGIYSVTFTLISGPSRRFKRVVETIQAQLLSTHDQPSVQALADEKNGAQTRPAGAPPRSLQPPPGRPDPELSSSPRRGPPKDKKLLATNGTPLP
T18 sequence (P36896 24-505): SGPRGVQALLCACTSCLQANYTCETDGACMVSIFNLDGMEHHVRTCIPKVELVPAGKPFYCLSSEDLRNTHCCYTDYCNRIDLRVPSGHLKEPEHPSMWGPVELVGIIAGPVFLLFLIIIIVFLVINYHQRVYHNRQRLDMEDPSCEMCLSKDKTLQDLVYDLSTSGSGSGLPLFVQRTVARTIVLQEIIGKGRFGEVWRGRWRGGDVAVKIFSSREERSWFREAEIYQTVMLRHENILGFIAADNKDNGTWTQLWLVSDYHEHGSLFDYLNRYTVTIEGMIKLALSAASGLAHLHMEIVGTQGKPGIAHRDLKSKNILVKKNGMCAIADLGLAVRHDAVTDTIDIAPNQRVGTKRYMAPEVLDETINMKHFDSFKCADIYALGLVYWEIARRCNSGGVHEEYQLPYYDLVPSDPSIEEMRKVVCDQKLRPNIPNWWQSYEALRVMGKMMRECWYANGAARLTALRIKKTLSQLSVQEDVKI
T9 sequence (P41240 whole entry): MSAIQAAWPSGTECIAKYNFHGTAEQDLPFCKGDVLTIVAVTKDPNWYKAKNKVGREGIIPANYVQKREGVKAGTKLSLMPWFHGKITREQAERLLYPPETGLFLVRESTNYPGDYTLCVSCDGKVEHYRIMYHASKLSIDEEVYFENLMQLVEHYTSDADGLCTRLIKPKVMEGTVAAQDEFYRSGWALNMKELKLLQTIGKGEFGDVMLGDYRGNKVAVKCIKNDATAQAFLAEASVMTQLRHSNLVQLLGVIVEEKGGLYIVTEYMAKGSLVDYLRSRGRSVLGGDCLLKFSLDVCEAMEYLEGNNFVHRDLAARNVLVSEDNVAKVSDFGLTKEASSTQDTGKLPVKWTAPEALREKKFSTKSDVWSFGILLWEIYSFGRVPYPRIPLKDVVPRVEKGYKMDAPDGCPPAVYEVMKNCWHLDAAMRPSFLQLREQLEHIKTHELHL

Cc1cnc(N[C@H]2CC[C@H](N)CC2)nc1-c1cnc2ccc(-c3ccccc3)cn12 [CDDD11-8]
remaining activity at 1 µM (EPHB4): 81% | remaining activity at 1 µM (TAOK3/JIK): 48.6% | remaining activity at 1 µM (P38a/MAPK14): 106% | remaining activity at 1 µM (STK21/CIT): 85.9% | remaining activity at 1 µM (BMX/ETK): 71.2% | remaining activity at 1 µM (HGK/MAP4K4): 32.8% | remaining activity at 1 µM (LATS1): 57.4% | remaining activity at 1 µM (JAK1): 93.3% | remaining activity at 1 µM (CSK): 91.2% | remaining activity at 1 µM (SGK1): 95.4% | remaining activity at 1 µM (CLK4): 26.1% | remaining activity at 1 µM (SGK2): 113% | remaining activity at 1 µM (IKKb/IKBKB): 78.1% | remaining activity at 1 µM (CAMK4): 97.3% | remaining activity at 1 µM (DYRK1/DYRK1A): 63.9% | remaining activity at 1 µM (CDK6/cyclin D3): 96.6% | remaining activity at 1 µM (HPK1/MAP4K1): 35.4% | remaining activity at 1 µM (ALK4/ACVR1B): 95.3% | remaining activity at 1 µM (NIM1): 89.9% | remaining activity at 1 µM (DYRK2): 12.7% | remaining activity at 1 µM (PIM2): 94.5% | remaining activity at 1 µM (DRAK1/STK17A): 92.5% | remaining activity at 1 µM (RIPK4): 72.6% | remaining activity at 1 µM (PKN3/PRK3): 81% | remaining activity at 1 µM (BRSK1): 97.4% | remaining activity at 1 µM (PAK3): 87.5% | remaining activity at 1 µM (MYO3b): 58.4% | remaining activity at 1 µM (MST3/STK24): 103% | remaining activity at 1 µM (LCK2/ICK): 62.4%

From publication PMC8909834, “An Orally Bioavailable and Highly Efficacious Inhibitor of CDK9/FLT3 for the Treatment of Acute Myeloid Leukemia” (Cancers, 2022)
